Experimental data published in patent publication US20150315188A1, “COMPOUNDS AND METHODS FOR TREATMENT OF HYPERTENSION” (MEDIVATION TECHNOLOGIES, INC., priority 2012, published 2015).

Legend:
Set-up in all cases: purchased Milipore (Millipore)
[1] = target: T1, Human adrenergic α2B receptor (Homo sapiens, UniProt P18089); experiment: Radioligand binding, adrenergic α2B (Protocol Group B); conditions: Protocol Group B; for Percentage inhibition of ligand binding, Adrenergic α2B (30 nM) / inhibition at 0.03 µM: 30 nM compound; for Percentage inhibition of ligand binding, Adrenergic α2B (30 nM): 0.03 µM; for inhibition at 0.03 µM: read-out: Percentage inhibition of ligand binding, Adrenergic α2B (30 nM); for Percentage inhibition of ligand binding, Adrenergic α2B (10 nM) / inhibition at 0.01 µM: 10 nM compound; for Percentage inhibition of ligand binding, Adrenergic α2B (10 nM): 0.01 µM; for Percentage inhibition of ligand binding, Adrenergic α2B (0.1 μM) / inhibition at 0.1 µM: 0.1 μM compound; for inhibition at 0.01 µM: read-out: Percentage inhibition of ligand binding, Adrenergic α2B (10 nM); for inhibition at 0.1 µM: read-out: Percentage inhibition of ligand binding, Adrenergic α2B (0.1 μM)
T1 sequence (P18089 1-450): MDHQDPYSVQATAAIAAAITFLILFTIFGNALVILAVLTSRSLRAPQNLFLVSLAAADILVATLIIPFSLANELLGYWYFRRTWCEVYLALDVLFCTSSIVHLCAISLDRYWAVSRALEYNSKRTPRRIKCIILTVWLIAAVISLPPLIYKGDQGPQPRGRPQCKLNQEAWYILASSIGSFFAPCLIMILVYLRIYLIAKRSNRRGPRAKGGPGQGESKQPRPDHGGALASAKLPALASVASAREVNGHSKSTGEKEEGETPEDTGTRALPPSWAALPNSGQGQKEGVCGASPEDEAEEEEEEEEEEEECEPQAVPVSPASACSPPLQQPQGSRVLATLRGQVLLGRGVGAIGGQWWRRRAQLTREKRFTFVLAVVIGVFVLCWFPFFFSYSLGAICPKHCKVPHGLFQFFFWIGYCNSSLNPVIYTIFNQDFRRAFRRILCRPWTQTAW
Summary of the method: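 Recombinant human α2B receptor membranes incubated with compounds in 50 mM Tris-HCl pH 7.4, 5 mM MgCl2, 1 mM CaCl2, 0.2% BSA, 1% DMSO vehicle. Non-specific binding defined with 10 μM rauwolscine. Values are percent inhibition of specific binding or estimated Ki.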

[2] = target: T2, Human adrenergic α2A receptor (Homo sapiens, UniProt P08913); experiment: Radioligand binding, adrenergic α2A (Protocol Group B); conditions: Protocol Group B; for Percentage inhibition of ligand binding, Adrenergic α2A (0.1 μM) / inhibition at 0.1 µM: 0.1 μM compound; for Percentage inhibition of ligand binding, Adrenergic α2A (0.3 μM) / inhibition at 0.3 µM: 0.3 μM compound; for inhibition at 0.1 µM: read-out: Percentage inhibition of ligand binding, Adrenergic α2A (0.1 μM); for inhibition at 0.3 µM: read-out: Percentage inhibition of ligand binding, Adrenergic α2A (0.3 μM)
T2 sequence (P08913 1-465): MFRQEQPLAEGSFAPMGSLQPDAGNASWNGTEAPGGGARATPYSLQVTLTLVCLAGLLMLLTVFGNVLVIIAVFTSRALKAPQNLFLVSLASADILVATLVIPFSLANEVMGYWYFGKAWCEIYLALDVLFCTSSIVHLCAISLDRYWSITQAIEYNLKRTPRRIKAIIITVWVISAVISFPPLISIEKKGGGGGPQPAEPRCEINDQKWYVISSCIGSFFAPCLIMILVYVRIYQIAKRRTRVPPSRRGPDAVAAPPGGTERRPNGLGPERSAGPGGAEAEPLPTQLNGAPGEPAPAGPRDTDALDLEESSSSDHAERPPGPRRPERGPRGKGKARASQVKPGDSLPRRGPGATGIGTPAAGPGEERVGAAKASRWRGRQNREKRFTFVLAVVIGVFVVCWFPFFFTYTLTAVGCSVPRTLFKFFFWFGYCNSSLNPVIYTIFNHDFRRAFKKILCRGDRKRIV
Summary of the method: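 Membranes from recombinant cells expressing the receptor, in 50 mM Tris-HCl pH 7.4 with 5 mM MgCl2, 1 mM CaCl2, 0.2% BSA; compounds incubated with 2 nM [^3H]MK-912 for 60 min at 25° C. Nonspecific binding defined by 10 μM rauwolscine; filtration, counting; percent inhibition of specific binding, or estimated Ki.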

[3] = target: T3, Human adrenergic α1B receptor (Homo sapiens, UniProt P35368); experiment: Radioligand binding, adrenergic α1B (Protocol Group B); conditions: Protocol Group B; for Percentage inhibition of ligand binding, Adrenergic α1B (0.1 μM) / inhibition at 0.1 µM: 0.1 μM compound; for Percentage inhibition of ligand binding, Adrenergic α1B (0.3 μM) / inhibition at 0.3 µM: 0.3 μM compound; for inhibition at 0.1 µM: read-out: Percentage inhibition of ligand binding, Adrenergic α1B (0.1 μM); for inhibition at 0.3 µM: read-out: Percentage inhibition of ligand binding, Adrenergic α1B (0.3 μM)
T3 sequence (P35368 1-520): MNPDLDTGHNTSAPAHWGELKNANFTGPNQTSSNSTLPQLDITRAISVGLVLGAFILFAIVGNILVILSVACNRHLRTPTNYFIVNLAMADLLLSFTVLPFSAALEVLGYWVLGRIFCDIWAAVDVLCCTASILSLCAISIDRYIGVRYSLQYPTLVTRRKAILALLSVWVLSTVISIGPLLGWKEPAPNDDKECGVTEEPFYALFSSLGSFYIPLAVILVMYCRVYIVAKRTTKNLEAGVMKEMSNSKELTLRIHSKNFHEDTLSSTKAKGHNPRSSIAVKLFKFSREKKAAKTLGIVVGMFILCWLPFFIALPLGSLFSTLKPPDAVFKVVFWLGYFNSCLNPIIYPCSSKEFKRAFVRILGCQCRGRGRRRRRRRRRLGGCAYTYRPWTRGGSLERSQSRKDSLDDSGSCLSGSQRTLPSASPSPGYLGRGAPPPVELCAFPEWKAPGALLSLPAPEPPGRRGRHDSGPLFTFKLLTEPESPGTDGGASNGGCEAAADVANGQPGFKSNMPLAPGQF
Summary of the method: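 Recombinant human α1B membranes incubated with test compound and 0.3 nM [3H]prazosin, 60 min at 25 °C, in 50 mM Tris-HCl pH 7.4, 10 mM MgCl2, 1 mM EDTA; nonspecific binding with 10 μM prazosin. Filter-bound radioactivity counted; values are % inhibition of specific binding or estimated Ki.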

Percentage inhibition of ligand binding, Adrenergic α2B (30 nM) [1] | Percentage inhibition of ligand binding, Adrenergic α2A (0.1 μM) [2] | Percentage inhibition of ligand binding, Adrenergic α1B (0.1 μM) [3] | inhibition at 0.03 µM [1] | Percentage inhibition of ligand binding, Adrenergic α2B (10 nM) [1] | Percentage inhibition of ligand binding, Adrenergic α2B (0.1 μM) [1] | Percentage inhibition of ligand binding, Adrenergic α2A (0.3 μM) [2] | Percentage inhibition of ligand binding, Adrenergic α1B (0.3 μM) [3] | inhibition at 0.01 µM [1] | inhibition at 0.1 µM [1] | inhibition at 0.1 µM [2] | inhibition at 0.3 µM [2] | inhibition at 0.1 µM [3] | inhibition at 0.3 µM [3] | SMILES
1% | 1% | 1% | – | – | – | – | – | – | – | – | – | – | – | OC(Cn1c2c(c3cc(F)cc(F)c31)C1CCCN1CC2)c1ccncc1 (single isomer, unassigned) [144d]
– | 39% | 46% | 84% | – | – | – | – | – | – | – | – | – | – | Cc1cc(Br)c2c(c1)c1c(n2CC(O)c2ccncc2)CCN2CCCC12 (single isomer, unassigned) [145a]
100% | 89% | 68% | – | – | – | – | – | – | – | – | – | – | – | Cc1cc(Br)c2c(c1)c1c(n2CC(O)c2ccncc2)CCN2CCCC12 (single isomer, unassigned) [145b]
11% | −2% | 14% | – | −2% | 30% | 11% | 21% | – | – | – | – | – | – | Cc1ccc2c(c1)c1c(n2CC(C)(O)c2cccnc2)CC2CCCN2C1 (stereo not drawn) [38a]
14% | −4% | 1% | – | 1% | 22% | 3% | 12% | – | – | – | – | – | – | Cc1ccc2c(c1)c1c(n2CC(C)(O)c2cccnc2)CC2CCCN2C1 (stereo not drawn) [38d]
51% | −7% | −2% | – | 24% | 80% | 6% | −3% | – | – | – | – | – | – | Cc1ccc2c(c1)c1c(n2CC(C)(O)c2cccnc2)CC2CCCN2C1 (stereo not drawn) [41a]
−14% | −16% | −11% | – | −14% | −2% | −5% | −4% | – | – | – | – | – | – | Cc1ccc2c(c1)c1c(n2CC(C)(O)c2cccnc2)CC2CCCN2C1 (stereo not drawn) [41b]
−10% | −12% | 1% | – | −8% | 0% | 1% | −5% | – | – | – | – | – | – | Cc1ccc2c(c1)c1c(n2CC(C)(O)c2cccnc2)CC2CCCN2C1 (stereo not drawn) [41c]
21% | −7% | −2% | – | 9% | 48% | 13% | −1% | – | – | – | – | – | – | Cc1ccc2c(c1)c1c(n2CC(C)(O)c2cccnc2)CC2CCCN2C1 (stereo not drawn) [41d]
93% | 16% | −6% | – | 79% | 97% | 39% | 19% | – | – | – | – | – | – | CC(O)(Cn1c2c(c3cc(F)ccc31)C1CCCN1CC2)c1cccnc1 (stereo not drawn) [51a]
69% | 13% | −8% | – | 45% | 86% | 34% | 4% | – | – | – | – | – | – | CC(O)(Cn1c2c(c3cc(F)ccc31)C1CCCN1CC2)c1cccnc1 (stereo not drawn) [51b]
0% | −12% | −4% | – | −7% | 14% | −11% | −4% | – | – | – | – | – | – | CC(O)(Cn1c2c(c3cc(F)ccc31)C1CCCN1CC2)c1cccnc1 (stereo not drawn) [57a]
−4% | −6% | −10% | – | −7% | 8% | −7% | −7% | – | – | – | – | – | – | CC(O)(Cn1c2c(c3cc(F)ccc31)C1CCCN1CC2)c1cccnc1 (stereo not drawn) [57b]
– | – | – | 97% | – | – | – | – | 84% | 99% | 39% | 65% | 28% | 62% | Cc1ccc2c(c1)c1c(n2CC(OCC2CCC2)c2ccncc2)CCN(C)C1 (stereo not drawn) [59b]
– | – | – | -4% | – | – | – | – | -10% | -1% | -3% | 5% | -1% | 1% | Cc1cc(F)cc2c3c(n(CC(C)(O)c4cccnc4)c12)CCN1CCCC31 (stereo not drawn) [75b]
– | – | – | -5% | – | – | – | – | -7% | – | -14% | -17% | -12% | -3% | CC(O)(Cn1c2c(c3cc(C(F)(F)F)ccc31)CN1CCCC1C2)c1cccnc1 (stereo not drawn) [85b]
– | – | – | 93% | – | – | – | – | – | – | 85% | – | 55% | – | Cc1cc(C)c2c(c1)c1c(n2CC(O)C2CCCCC2)CCN2CCCC12 (stereo not drawn) [141a]
92% | 81% | 57% | – | – | – | – | – | – | – | – | – | – | – | Cc1cc(C)c2c(c1)c1c(n2CC(O)C2CCCCC2)CCN2CCCC12 (stereo not drawn) [141b]
